In ChEMBL document CHEMBL1909046, “DrugMatrix in vitro pharmacology data”:

How the values were obtained:
Acetylcholinesterase = Acetylcholinesterase (Homo sapiens, UniProt P22303); experiment: DRUGMATRIX: Acetylcholinesterase enzyme inhibition (substrate: acetylthiocholine); assay type: cell-based, HEK293; settings: Not Active = under 50% inhibition at 10 µM
[1] = molecular target: T1, C-C chemokine receptor type 4 (Homo sapiens, UniProt P51679); assay type: cell membranes, Membrane; settings: chem-1; note: in other assays of this panel Not Active means under 50% inhibition at 10 µM
T1 sequence (P51679 whole entry): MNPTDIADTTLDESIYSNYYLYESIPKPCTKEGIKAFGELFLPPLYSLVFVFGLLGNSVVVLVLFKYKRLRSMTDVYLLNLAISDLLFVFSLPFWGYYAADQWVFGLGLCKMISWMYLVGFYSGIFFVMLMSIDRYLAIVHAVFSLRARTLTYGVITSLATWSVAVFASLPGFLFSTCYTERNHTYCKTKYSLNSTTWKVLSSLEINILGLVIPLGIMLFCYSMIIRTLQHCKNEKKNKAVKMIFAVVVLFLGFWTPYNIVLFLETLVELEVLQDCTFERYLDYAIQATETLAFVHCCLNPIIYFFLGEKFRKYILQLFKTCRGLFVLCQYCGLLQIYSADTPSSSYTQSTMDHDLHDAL

[2] = molecular target: T2, Type-2 angiotensin II receptor (Homo sapiens, UniProt P50052); assay type: cell-based; settings: cho-k1; note: in other assays of this panel Not Active means under 50% inhibition at 10 µM
T2 sequence (P50052 whole entry): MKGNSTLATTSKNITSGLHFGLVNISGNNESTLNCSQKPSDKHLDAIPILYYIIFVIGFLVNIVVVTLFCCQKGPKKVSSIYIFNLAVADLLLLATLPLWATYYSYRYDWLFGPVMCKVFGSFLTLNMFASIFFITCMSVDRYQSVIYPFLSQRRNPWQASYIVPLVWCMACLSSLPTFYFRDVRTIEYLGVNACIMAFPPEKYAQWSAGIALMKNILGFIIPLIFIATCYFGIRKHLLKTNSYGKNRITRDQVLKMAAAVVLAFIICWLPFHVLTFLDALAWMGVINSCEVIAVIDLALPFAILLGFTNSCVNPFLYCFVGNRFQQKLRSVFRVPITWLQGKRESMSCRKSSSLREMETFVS

[3] = DRUGMATRIX: Calcium Channel Type L, Dihydropyridine radioligand binding (ligand: [3H] Nitrendipine); assay type: cell membranes, Rattus norvegicus, Wistar, Cerebral cortex, Membrane; settings: Not Active = under 50% inhibition at 10 µM
Glycine receptor = Glycine receptor (Rattus norvegicus, UniProt P22771+P24524+P07727+P20781); assay type: cell membranes, Wistar, Spinal cord, Membrane; note: in other assays of this panel Not Active means under 50% inhibition at 10 µM
[4] = molecular target: T3, Muscarinic acetylcholine receptor M5 (Homo sapiens, UniProt P08912); assay type: cell membranes, CHO-K1, Membrane; note: in other assays of this panel Not Active means under 50% inhibition at 10 µM
T3 sequence (P08912 whole entry): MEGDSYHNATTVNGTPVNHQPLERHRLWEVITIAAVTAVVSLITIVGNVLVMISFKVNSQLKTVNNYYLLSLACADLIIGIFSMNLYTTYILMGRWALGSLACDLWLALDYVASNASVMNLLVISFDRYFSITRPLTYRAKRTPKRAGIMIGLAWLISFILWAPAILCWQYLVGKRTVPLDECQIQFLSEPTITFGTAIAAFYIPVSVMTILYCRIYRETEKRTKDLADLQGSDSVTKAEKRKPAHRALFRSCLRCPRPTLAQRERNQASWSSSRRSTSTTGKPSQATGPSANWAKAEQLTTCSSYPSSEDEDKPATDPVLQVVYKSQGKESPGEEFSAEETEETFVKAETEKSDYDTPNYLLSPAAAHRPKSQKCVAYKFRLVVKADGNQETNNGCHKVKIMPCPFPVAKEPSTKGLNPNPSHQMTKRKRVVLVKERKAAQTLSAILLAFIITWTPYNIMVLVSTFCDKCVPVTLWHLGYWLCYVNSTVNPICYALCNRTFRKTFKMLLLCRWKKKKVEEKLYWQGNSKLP

[5] = molecular target: Kappa-type opioid receptor (Homo sapiens, UniProt P41145); experiment: DRUGMATRIX: Opiate kappa (OP2, KOP) radioligand binding (ligand: [3H] Diprenorphine); assay type: cell membranes, HEK293, Membrane; settings: hek293; Not Active = under 50% inhibition at 10 µM
Melanocortin receptor 3 = Melanocortin receptor 3 (Homo sapiens, UniProt P41968); assay type: cell membranes, Membrane; settings: hek293; note: in other assays of this panel Not Active means under 50% inhibition at 10 µM
[6] = molecular target: T4, Angiotensin-converting enzyme (Oryctolagus cuniculus, UniProt P12822); assay type: tissue-based, Lung
T4 sequence (P12822 whole entry): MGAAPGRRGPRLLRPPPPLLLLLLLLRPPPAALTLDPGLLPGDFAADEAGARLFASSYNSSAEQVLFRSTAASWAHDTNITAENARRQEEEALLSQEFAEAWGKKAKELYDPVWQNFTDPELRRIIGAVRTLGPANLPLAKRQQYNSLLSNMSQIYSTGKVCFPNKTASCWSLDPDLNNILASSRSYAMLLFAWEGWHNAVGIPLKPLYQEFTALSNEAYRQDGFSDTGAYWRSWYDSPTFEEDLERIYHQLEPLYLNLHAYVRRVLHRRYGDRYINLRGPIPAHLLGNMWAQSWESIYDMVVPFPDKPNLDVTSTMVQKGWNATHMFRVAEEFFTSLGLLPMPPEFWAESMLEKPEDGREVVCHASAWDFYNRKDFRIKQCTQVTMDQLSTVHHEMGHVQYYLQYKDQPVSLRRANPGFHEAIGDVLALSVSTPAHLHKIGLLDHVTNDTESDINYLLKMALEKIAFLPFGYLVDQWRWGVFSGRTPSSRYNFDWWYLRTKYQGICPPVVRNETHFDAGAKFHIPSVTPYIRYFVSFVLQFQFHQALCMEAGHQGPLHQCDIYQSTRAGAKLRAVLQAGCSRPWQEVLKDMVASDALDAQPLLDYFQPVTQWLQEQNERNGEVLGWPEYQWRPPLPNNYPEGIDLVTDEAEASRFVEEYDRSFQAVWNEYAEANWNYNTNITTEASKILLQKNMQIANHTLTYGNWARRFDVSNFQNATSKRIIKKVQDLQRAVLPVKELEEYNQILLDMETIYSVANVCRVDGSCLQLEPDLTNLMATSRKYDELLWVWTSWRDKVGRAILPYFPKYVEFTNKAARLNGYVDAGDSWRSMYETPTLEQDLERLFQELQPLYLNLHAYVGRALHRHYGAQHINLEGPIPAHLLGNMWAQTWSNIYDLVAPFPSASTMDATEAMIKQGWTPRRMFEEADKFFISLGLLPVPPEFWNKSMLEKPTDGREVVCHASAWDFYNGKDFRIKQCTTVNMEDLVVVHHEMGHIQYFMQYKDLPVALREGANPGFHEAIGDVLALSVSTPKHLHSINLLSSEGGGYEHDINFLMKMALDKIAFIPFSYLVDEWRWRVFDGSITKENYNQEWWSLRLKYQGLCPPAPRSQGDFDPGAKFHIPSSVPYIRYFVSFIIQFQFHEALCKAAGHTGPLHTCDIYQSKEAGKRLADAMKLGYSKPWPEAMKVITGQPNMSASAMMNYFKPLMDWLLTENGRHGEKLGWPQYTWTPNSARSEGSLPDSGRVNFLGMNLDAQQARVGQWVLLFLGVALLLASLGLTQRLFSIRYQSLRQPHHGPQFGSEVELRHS

Sequence of Kappa-type opioid receptor (P41145 whole entry): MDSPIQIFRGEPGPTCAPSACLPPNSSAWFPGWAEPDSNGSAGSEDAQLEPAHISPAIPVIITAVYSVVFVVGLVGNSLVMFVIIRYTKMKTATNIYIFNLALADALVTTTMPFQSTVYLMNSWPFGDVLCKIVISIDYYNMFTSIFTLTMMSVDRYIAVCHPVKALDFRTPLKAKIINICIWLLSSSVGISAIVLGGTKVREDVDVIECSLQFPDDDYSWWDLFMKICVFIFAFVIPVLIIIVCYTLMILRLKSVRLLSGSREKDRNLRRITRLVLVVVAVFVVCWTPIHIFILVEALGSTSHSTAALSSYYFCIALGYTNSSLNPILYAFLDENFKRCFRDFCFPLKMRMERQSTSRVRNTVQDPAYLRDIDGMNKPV
Sequence of Acetylcholinesterase (P22303 whole entry): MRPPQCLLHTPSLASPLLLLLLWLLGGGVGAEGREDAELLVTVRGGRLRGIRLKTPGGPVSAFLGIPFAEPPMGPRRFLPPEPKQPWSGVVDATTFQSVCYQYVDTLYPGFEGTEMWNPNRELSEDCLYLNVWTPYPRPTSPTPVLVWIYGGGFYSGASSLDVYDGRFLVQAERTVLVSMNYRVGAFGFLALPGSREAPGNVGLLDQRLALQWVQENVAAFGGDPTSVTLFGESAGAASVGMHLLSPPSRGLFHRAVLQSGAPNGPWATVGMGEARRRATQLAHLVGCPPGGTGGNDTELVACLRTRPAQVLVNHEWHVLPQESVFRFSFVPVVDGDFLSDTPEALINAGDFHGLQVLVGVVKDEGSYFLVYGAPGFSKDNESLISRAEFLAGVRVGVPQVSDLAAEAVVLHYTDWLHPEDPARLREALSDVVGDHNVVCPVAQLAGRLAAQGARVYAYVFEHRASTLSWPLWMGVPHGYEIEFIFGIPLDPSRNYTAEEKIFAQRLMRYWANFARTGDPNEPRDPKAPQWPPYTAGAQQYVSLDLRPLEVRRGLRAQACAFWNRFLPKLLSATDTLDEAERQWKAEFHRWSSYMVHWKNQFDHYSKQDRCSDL
Sequence of Melanocortin receptor 3 (P41968 whole entry): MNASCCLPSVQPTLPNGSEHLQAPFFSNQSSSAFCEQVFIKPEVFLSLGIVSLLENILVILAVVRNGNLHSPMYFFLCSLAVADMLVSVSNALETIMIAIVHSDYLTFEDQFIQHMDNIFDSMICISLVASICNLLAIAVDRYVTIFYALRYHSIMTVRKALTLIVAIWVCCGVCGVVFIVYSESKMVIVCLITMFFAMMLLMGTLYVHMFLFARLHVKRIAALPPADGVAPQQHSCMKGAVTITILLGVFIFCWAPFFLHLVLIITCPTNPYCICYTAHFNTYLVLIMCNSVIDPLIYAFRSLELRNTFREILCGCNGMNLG

Structure (SMILES)	IC50 (Acetylcholinesterase; hek293)	IC50 [1]	IC50 [2]	IC50 [3]	Ki [3]	IC50 (Glycine receptor)	IC50 ([4]; cho-k1)	IC50 [5]	IC50 (Melanocortin receptor 3)	IC50 [6]	IC50 ([4]; read-out: IC50)	Ki ([4]; read-out: Ki)	IC50 (Acetylcholinesterase; read-out: IC50)	IC50 ([3]; read-out: IC50)	Ki ([3]; read-out: Ki)
CC1=C(CC(=O)O)c2cc(F)ccc2/C1=C\c1ccc([S+](C)[O-])cc1 (stereo unspecified)	Not Active	Not Active	Not Active	Not Active	Not Active	Not Active	Not Active	Not Active	Not Active	Not Active	–	–	–	–	–
N[C@H](CSC(=S)NCc1ccccc1)C(=O)O	Not Active	Not Active	Not Active	Not Active	Not Active	Not Active	Not Active	Not Active	Not Active	Not Active	–	–	–	–	–
CC(=O)N[C@@H]1[C@H](Oc2c3cc4cc2Oc2ccc(cc2Cl)[C@@H](O[C@@H]2O[C@@H](CO)[C@@H](O)[C@H](O)[C@@H]2NC(C)=O)[C@@H]2NC(=O)[C@H](NC(=O)[C@@H]4NC(=O)[C@H]4NC(=O)[C@@H](Cc5ccc(c(Cl)c5)O3)NC(=O)[C@H](N)c3ccc(O)c(c3)Oc3cc(O)cc4c3)c3ccc(O)c(c3)-c3c(O[C@H]4O[C@H](CO)[C@@H](O)[C@@H](O)[C@@H]4O)cc(O)cc3[C@@H](C(=O)O)NC2=O)O[C@@H](CO)[C@@H](O)[C@@H]1O	Not Active	Not Active	Not Active	Not Active	Not Active	Not Active	Not Active	Not Active	Not Active	Not Active	–	–	–	–	–
Clc1ccc2c(c1)C(N1CCNCC1)=Nc1ccccc1O2 [AMOXAPINE]	Not Active	Not Active	Not Active	–	–	Not Active	–	Not Active	Not Active	Not Active	–	–	–	–	–
COc1cc2c(c(OC)c1OC)-c1ccc(OC)c(=O)cc1[C@@H](NC(C)=O)CC2 [COLCHICINE]	Not Active	Not Active	Not Active	–	–	Not Active	Not Active	–	Not Active	Not Active	–	–	–	–	–
CN1CCC(=C2c3ccccc3C=Cc3ccccc32)CC1 [CYPROHEPTADINE]	Not Active	Not Active	Not Active	–	–	Not Active	–	Not Active	Not Active	Not Active	3.83 nM	2.75 nM	–	–	–
CC/C(=C(/CC)c1ccc(O)cc1)c1ccc(O)cc1 [DIETHYLSTILBESTROL]	–	Not Active	Not Active	–	–	Not Active	–	–	Not Active	Not Active	–	–	25600 nM	–	–
CC(=O)N1CCN(c2ccc(OCC3COC(Cn4ccnc4)(c4ccc(Cl)cc4Cl)O3)cc2)CC1 (stereo unspecified) [KETOCONAZOLE]	Not Active	Not Active	Not Active	Not Active	Not Active	Not Active	Not Active	Not Active	Not Active	Not Active	–	–	–	–	–
C=CCN1CC[C@]23c4c5ccc(O)c4O[C@H]2C(=O)CC[C@@]3(O)[C@H]1C5 [NALOXONE]	Not Active	Not Active	Not Active	–	–	Not Active	Not Active	–	Not Active	Not Active	–	–	–	–	–
COCCOC(=O)C1=C(C)NC(C)=C(C(=O)OC(C)C)C1c1cccc([N+](=O)[O-])c1 (stereo unspecified) [NIMODIPINE]	Not Active	Not Active	Not Active	–	–	Not Active	Not Active	Not Active	Not Active	Not Active	–	–	–	0.242 nM	0.156 nM
CC(C)NCC(O)COc1cccc2ccccc12 (stereo unspecified) [PROPRANOLOL]	Not Active	Not Active	Not Active	–	–	Not Active	Not Active	Not Active	Not Active	Not Active	–	–	–	–	–
COCCCOc1ccnc(C[S+]([O-])c2nc3ccccc3[nH]2)c1C (stereo unspecified) [RABEPRAZOLE]	Not Active	Not Active	Not Active	Not Active	Not Active	Not Active	Not Active	Not Active	Not Active	Not Active	–	–	–	–	–
O=C(c1ccc(OCCN2CCCCC2)cc1)c1c(-c2ccc(O)cc2)sc2cc(O)ccc12 [RALOXIFENE]	–	Not Active	Not Active	–	–	Not Active	Not Active	–	Not Active	Not Active	–	–	400 nM	388 nM	249 nM
CNC(=C[N+](=O)[O-])NCCSCc1ccc(CN(C)C)o1 [RANITIDINE]	Not Active	Not Active	Not Active	Not Active	Not Active	Not Active	Not Active	Not Active	Not Active	Not Active	–	–	–	–	–
CC(C)c1nc(CN(C)C(=O)N[C@H](C(=O)N[C@@H](Cc2ccccc2)C[C@H](O)[C@H](Cc2ccccc2)NC(=O)OCc2cncs2)C(C)C)cs1 [RITONAVIR]	Not Active	Not Active	Not Active	Not Active	Not Active	Not Active	Not Active	–	Not Active	Not Active	–	–	–	–	–
CC(=O)CC(c1ccccc1)c1c(O)c2ccccc2oc1=O (stereo unspecified) [WARFARIN]	Not Active	Not Active	Not Active	Not Active	Not Active	Not Active	Not Active	–	Not Active	Not Active	–	–	–	–	–
